The values that follow come from US20230330118A1, “2-DEOXY-D-GLUCOSE FOR PREVENTION AND TREATMENT OF A VIRAL DISEASE, IN PARTICULAR OF COVID-19” (priority 2020, published 2023).

Read-outs that look alike come from different tables or passages of the source.

The subject of one data set is SARS-CoV-2 Spike Protein. Kind of data set: Western blot analysis of Spike protein glycosylation in human bronchial epithelial cells (HBEpiC) transduced with Spike lentiviral vectors. The class given is cell-based.
Data set [1] concerns Human Bronchial Epithelial Cells (HBEpiC). Kind of data set: Cell viability (CellTiter 96 AQueous), short exposure. The class given is cell-based. As to conditions: 15 minutes to 6 hours exposure. On the procedure:
(§1) Human Bronchial Epithelial Cells (HBEpiC) were obtained from Innoprot (Cat no. P10557, batch no. 7475) and cultured in Bronchial Epithelial Cell Medium (Innoprot, Cat no. P60151) supplemented with 0.2% gentamicin (Gibco, Life Technologies, USA, Cat. no. 15710-049) under standard cell culture conditions (5% CO2, 16% O2, 37° C.). HBEpiC at passage 2, were plated in Bronchial Epithelial Cell Medium at 10.0 thousand cells per well of a 96-well plate and left for 48 hours in an incubator. The plates were coated with collagen (Collagen I-cell surface coating kit, Innoprot, Cat no. P8188) prior to cell seeding. 2-deoxy-D-glucose (Sigma-Aldrich; Cat no. D8375) was added to the cells for 15 min, 30 min, 1 h, 2 h and 6 h.
Cells were exposed to the compound at the following concentrations of 2-deoxy-D-glucose in medium as a solvent: 200 mM; 100 mM; 50 mM; 25 mM; 12.5 mM; 6.25 mM.
In order to assess cell viability, medium containing 2-deoxy-D-glucose was removed, the fresh medium was added to the cells and CellTiter 96® AQueous Solution Assay (Promega) was used in accordance with the manufacturer's instructions, 20 μl of reagent was added per 100 μl of cell culture medium and cells were incubated at 5% CO2, 16% O2, 37° C. Absorbance was measured at 490 nm. The results obtained 1 hour after addition of the CellTiter reagent were analyzed in GraphPadPrism 5.01. […]

Data set [2] has the same test system. The data set is described as follows: Cell viability (CellTiter 96 AQueous), long exposure. As to conditions: 48 h exposure (FIG. 5). It counts as cell-based. On the procedure:
as §1, with “passage 6,” for “passage 2,”, “at 9.0” for “at 10.0”, “for 48” for “for 15 min, 30 min, 1 h, 2 h and 6”
Cells were exposed to compounds at the following concentrations of 2-deoxy-D-glucose in medium as a solvent: 100 mM; 50 mM; 25 mM; 12.5 mM; 6.25 mM; 3.13 mM.
In order to asses cell viability, CellTiter 96® AQueous Solution Assay (Promega) was used in accordance with the manufacturer's instructions, 20 μl of reagent was added per 100 μl of cell culture medium and cells were incubated at 5% CO2, 16% O2, 37° C. Absorbance was measured at 490 nm. The results obtained 4 hours after addition of the CellTiter reagent were analyzed in GraphPadPrism 5.01. Data normalization and a nonlinear regression model were applied in order to determine the IC50.

The subject of data set [3] is SARS-CoV-2. The class given is cell-based.
The test system of data set [4] is primary human bronchial epithelial cells. Kind of data set: Toxicity observed in PBEC during the 48 h antiviral incubation. The class given is cell-based. As to conditions: 48 h incubation. How it is done: Day 2. Pre-treatment of PBEC cells in 48 wells plate with 2-DG prior to SARS-CoV-2 infection (2 h), and treatment with 2-DG for 48 h. SARS-CoV-2 was added at MOI 10-1 (MOI 0.1) and removed after 2 hours. Then, the cell culture was washed with PBS (3×0.5 mL) and 300 μL of medium with 2-DG from 50 mM to 0.39 mM, or medium with or without remdesivir for control, were added.

Data set [5] concerns SARS-CoV-2. The class given is cell-based. As to conditions: Vero E6.
Data set [6] deals with SARS-CoV-2. The class given is cell-based. The conditions noted are these: for TCID50/ml: Vero-E6, M.O.I 0.001.
Data set [7] is described as follows: 2-DG uptake measurement in lung tissue lysates of mice treated by inhalation. It counts as in vivo. The conditions noted are these: 7 days, 14 days. How it is done:
The analysis involved six lung tissue sections of mice (both male and female) treated by inhalation with 2-DG at a concentration of 30 mM thrice a day for 24 hours, 7 days and two weeks. The tissues were weighed, suspended in 10 mM Tris-HCl lysis buffer (pH 8.0) and then subjected to homogenization with the use of homogenizer (MPW-302, Precision Mechanics). Each analyzed sample is described in table below:
The 2DG6P accumulation in cells was determined with the use of 2-Deoxyglucose (2-DG) Uptake Measurement Kit (Cat. No. CSR-OKP-PMG-K01TE; Cosmo Bio Co., LTD., Tokyo, Japan) according to the manufacturer's protocol.
1. Cell and tissue lysates were heat treated at 80° C. for 15 min and then centrifuged at 4° C., 15 000×g for 20 min.
2. The supernatants were transferred to new tubes and used as unknown samples for measurement method (point 5).
3. The 2DG6P standards were prepared by serial dilution of 1 mM 2DG6P in 1× Sample Diluent Buffer in the following ranges: 0; 0.3125; 0.625; 1.25; 2.5 and 5 μM.
4. 60 μL of Reagent Mix A (including NAD and low glucose-6-phosphate dehydrogenase (G6PDH)) were added to each well of 96-ell plate.
5. Then 2DG6P standard and unknown samples (20 μL) were added to each well and incubated for over 19 hours at room temperature.
6. […]
12. The optical density (OD) was read at 420 nm in every 2.5 min over a period of 30 min using a microplate reader preheated to 30° C.

The test system of data set [8] is rhinovirus. As to conditions: Gualdoni et al. 2018; cited from earlier work.
Data set [9] relates to rhinovirus. As to conditions: Gualdoni et al. 2018; cited from earlier work. The source holds these as a separate data set.
Data set [10] has as its system SARS-CoV-2. As to conditions: Bojkova et al. 2020; cited from earlier work.
The conditions of data set [11]: very high tolerance; cited from earlier work.

For `O=CC[C@@H](O)[C@H](O)[C@H](O)CO` [Example 2-DG, 2-deoxy-D-glucose], the “inhibition of spike glycosylation at 15 mM” value in the data set with SARS-CoV-2 Spike Protein (15 mM, FIG. 2) is listed as “total inhibition”. The “glycosylation of spike protein from SARS-CoV-2 virus” value in the data set on SARS-CoV-2 Spike Protein (25 mM or 15 mM 2-DG for 24 h, Western blot (FIG. 2)) is reported as “inhibits glycosylation”. Also, in data set [1], the “cytotoxic effects on epithelial cells” value is reported as “lack of cytotoxic effects”. Also, the “IC50 (cell viability)” value in data set [2] is “very high”. Also, the “concentration from which production of infectious SARS-CoV-2 particles decreases” value in the data set with SARS-CoV-2 [3] (PBEC, 2 h pretreatment, MOI 0.1, 48 h, TCID50) is ≥ 0.78 mM. In addition, the “concentration above which effect is equivalent to the positive control remdesivir” value in the data set with SARS-CoV-2 [3] (PBEC, remdesivir 6 μM) was “above 0.78 mM”. Moreover, the “concentration from which production of infectious SARS-CoV-2 particles massively decreases” value with SARS-CoV-2 [3] (PBEC, treatment only conditions, MOI 0.1, 48 h, TCID50) is recorded as ≥ 0.78 mM. In addition, the SARS-CoV-2 virus production result in the data set with SARS-CoV-2 [3] (primary human bronchial epithelial cells, 0.39 to 50 mM) is recorded as “dose dependent decrease”. Further, the toxicity result in [4] is given as “No toxicity”. Besides, the “production of infectious SARS-CoV-2 particles (TCID50)” value in the data set with SARS-CoV-2 [5] (MOI 0.001, 0.39 to 50 mM, 24 h) is given as “strong decrease”; in the data set on SARS-CoV-2 [6] (Vero E6, 2-DG added 8 hours after infection) it was “strong decrease”. The “effect on qPCR experiments (gene E copy numbers) compared with TCID50” value in the data set with SARS-CoV-2 [5] (RT-qPCR) is “less pronounced”. The TCID50/ml amounted to 1.47E+07 TCID50/ml in the data set on SARS-CoV-2 [6] (Post-treatment (8 h.p.i), 2-DG 0.19 mM); 3.16E+07 TCID50/ml in the data set on SARS-CoV-2 [6] (Post-treatment (8 h.p.i), 2-DG 0.56 mM); 3.16E+06 TCID50/ml in the data set with SARS-CoV-2 [6] (Post-treatment (8 h.p.i), 2-DG 1.67 mM); 3.16E+05 TCID50/ml in the data set on SARS-CoV-2 [6] (Post-treatment (8 h.p.i), 2-DG 5 mM); 3.16E+04 TCID50/ml in the data set with SARS-CoV-2 [6] (Post-treatment (8 h.p.i), 2-DG 15 mM); 1.47E+01 TCID50/ml with SARS-CoV-2 [6] (Post-treatment (8 h.p.i), 2-DG 45 mM). Also, the TCID50/ml in the data set with SARS-CoV-2 [6] (Treatment (0 h.p.i), 2-DG 0.19 mM) came to 6.81E+06 TCID50/ml; in the data set with SARS-CoV-2 [6] (Treatment (0 h.p.i), 2-DG 0.56 mM) it was 3.16E+07 TCID50/ml; in the data set with SARS-CoV-2 [6] (Treatment (0 h.p.i), 2-DG 1.67 mM), 1.47E+07 TCID50/ml; in the data set on SARS-CoV-2 [6] (Treatment (0 h.p.i), 2-DG 5 mM), 1.47E+05 TCID50/ml; in the data set with SARS-CoV-2 [6] (Treatment (0 h.p.i), 2-DG 15 mM), 3.16E+02 TCID50/ml; in the data set on SARS-CoV-2 [6] (Treatment (0 h.p.i), 2-DG 45 mM), 3.16E+00 TCID50/ml. Besides, the “course of 2-DG accumulation over treatment time” value in data set [7] (inhalation 24 h) is listed as “plateau effect”. The “2-DG accumulation in the lungs” value in data set [7] (inhalation of 30 mM 2-DG thrice a day for 24 h, OD 420 nm (FIG. 10)) is “accumulated in the lungs”. Also, the “rhinovirus replication in vitro” value in the data set on rhinovirus [8] was “decreasing rhinovirus replication”. Besides, in the data set with rhinovirus [9], the “infection and inflammation in a mouse model” value is “inhibited infection and inflammation”. In addition, the SARS-CoV-2 replication entry with SARS-CoV-2 [10] is given as “inhibition”. The “tolerated dose in clinical trials” value in data set [11] is “up to 63 mg per kg body weight and day”.
`CCC(CC)COC(=O)[C@H](C)N[P@](=O)(OC[C@H]1O[C@@](C#N)(c2ccc3c(N)ncnn23)[C@H](O)[C@@H]1O)Oc1ccccc1` [RMD, remdesivir]: the TCID50/ml in the data set on SARS-CoV-2 [6] (Post-treatment (8 h.p.i), RMD 6 μM) is given as 6.81E+03 TCID50/ml; with SARS-CoV-2 [6] (Treatment (0 h.p.i), RMD 6 μM), 6.81E+00 TCID50/ml.
